# Reference: ChEMBL document CHEMBL1149039, “A new scalarane sesterterpenoid from the marine sponge Cacospongia mollior” (J Nat Prod, 1994)
# Test: Toxicity in Artemia salina
# Assay type: organism-based
# Conditions: in vivo, read-out: LD50 (the source's name)
row,SMILES,LC50 [µg/mL]
1,CC1(C)CCC[C@]2(C)[C@H]3CC[C@@]4(C)[C@@H](CC=C(C=O)[C@@H]4C=O)[C@]3(C)CC[C@@H]12 [12-DEACETOXYSCALARADIAL],0.77
2,CC(=O)O[C@H]1C[C@@H]2[C@@]3(C)CCCC(C)(C)[C@@H]3CC[C@@]2(C)[C@@H]2CC=C(C=O)[C@H](C=O)[C@@]12C [SCALARADIAL],0.18
